Results published in ChEMBL document CHEMBL3576796, “A Broad Anti-influenza Hybrid Small Molecule That Potently Disrupts the Interaction of Polymerase Acidic Protein-Basic Protein 1 (PA-PB1) Subunits” (J Med Chem, 2015).

Experiment: Antiviral activity against Influenza A virus A/Parma/24/09 (H1N1) (Oseltamivir-resistant) assessed as reduction in plaque formation after 48 hrs by plaque reduction assay
Type: functional, Influenza A virus (A/Parma/24/2009(H1N1))

CCCOc1ccc(C(=O)Nc2nc3n(n2)C(c2ccccc2)C=C(C)N3)cc1 (centres undefined)
EC50: 49 µM

Cc1cc(-c2ccccc2)nc2nc(NC(=O)c3ccccc3)nn12
EC50: 25 µM

Cc1cc(-c2ccccc2)n2nc(C(=O)Nc3sc4c(c3C(N)=O)CCCCC4)nc2n1
EC50: 25 µM

Cc1cc(-c2ccccc2)nc2nc(C(=O)Nc3sc4c(c3C(N)=O)CCCCC4)nn12
EC50: 5 µM
